The source of these data is publication PMC12119275 (Frontiers in Molecular Biosciences, 2025).

Series [1] deals with SARS-CoV-2. Put plainly: microbe, parasite or virus in culture. It is filed as cell-based. The note with it: Severe acute respiratory syndrome coronavirus 2, A549, read-out: IC50, inhibition of SARS-CoV-2 infection of A549-hACE2 cells.
A further series has as its system SARS-CoV-1pp. Kind of series: microbe, parasite or virus in culture. The note with it: Severe acute respiratory syndrome coronavirus, HEK293, 48 h, read-out: EC50 SARS-CoV-1pp. The series is classed as cell-based.
Another series relates to SARS-CoV-2pp. Put plainly: microbe, parasite or virus in culture. The series is classed as cell-based. The conditions noted are these: for EC50: Severe acute respiratory syndrome coronavirus 2, HEK293, 48 h, read-out: EC50 SARS-CoV-2pp; for IC50: Severe acute respiratory syndrome coronavirus 2, HEK293, read-out: IC50, inhibition of SARS-CoV-2pp infection of HEK-293-hACE2 cells.

The subject of series [2] is B.1.1.7 (alpha) SARS-CoV-2pp. Kind of series: microbe, parasite or virus in culture. It is filed as cell-based. The conditions noted are these: Severe acute respiratory syndrome coronavirus 2, HEK293, 48 h, read-out: EC50 B.1.1.7 (alpha) SARS-CoV-2pp.
For series [3], the system named is B.1.351 (beta) SARS-CoV-2pp. Put plainly: microbe, parasite or virus in culture. It is filed as cell-based. The conditions noted are these: Severe acute respiratory syndrome coronavirus 2, HEK293, 48 h, read-out: EC50 B.1.351 (beta) SARS-CoV-2pp.
For series [4], the system named is B.1.617.2 (delta) SARS-CoV-2pp. Kind of series: microbe, parasite or virus in culture. It is filed as cell-based. The note with it: Severe acute respiratory syndrome coronavirus 2, HEK293, 48 h, read-out: EC50 B.1.617.2 (delta) SARS-CoV-2pp.
The test system of series [5] is B.1.1.28 (gamma) SARS-CoV-2pp. Put plainly: microbe, parasite or virus in culture. It is filed as cell-based. The note with it: Severe acute respiratory syndrome coronavirus 2, HEK293, 48 h, read-out: EC50 B.1.1.28 (gamma) SARS-CoV-2pp.
The test system of series [6] is B.1.1.529 (omicron) SARS-CoV-2pp. Kind of series: microbe, parasite or virus in culture. It is filed as cell-based. The conditions noted are these: Severe acute respiratory syndrome coronavirus 2, HEK293, 48 h, read-out: EC50 B.1.1.529 (omicron) SARS-CoV-2pp.
The test system of a further series is BA.2 SARS-CoV-2pp. Put plainly: microbe, parasite or virus in culture. The series is classed as cell-based. The note with it: Severe acute respiratory syndrome coronavirus 2, HEK293, 48 h, read-out: EC50 BA.2 SARS-CoV-2pp.
Another series concerns MERSpp. Put plainly: microbe, parasite or virus in culture. It is filed as cell-based, MERS. The conditions noted are these: Middle East respiratory syndrome-related coronavirus, HeLa, 48 h, read-out: EC50 MERSpp.
Series [7] deals with SARS CoV-2 2019-nCoV/USA-WA1/2020. Put plainly: Efficacy in SARS-CoV2 infected K18-hACE2 mice (lung viral load by plaque assay). The note with it: 2 h before and 24 h after infection, 3 days post-infection; for effect on SARS-CoV2 viral load in lung homogenates: 100 mg/kg p.o. at 24 h before. It is filed as in vivo.
Series [8] concerns SARS-CoV-2. The conditions noted are these: ref Dittmar et al., 2021; cited from earlier work.
The next series concerns COVID-19. The note with it: Phase 2 clinical trial; ref BerGenBio, 2022; cited from earlier work.
A short description of series [9]: Pharmacokinetics analysis in mice. The note with it: C57 Bl/6, mouse, plasma, po.
Series [10] concerns A549 cells. Kind of series: A549 cell vacuolization analysis (phase contrast). The conditions noted are these: 5 µM, 24 h.
Series [11] relates to A549 cells. Kind of series: A549 cell phospholipidosis (NBD-PE staining assay). The note with it: 24 h, dose-range; amiodarone positive control.
Another series has as its target T1, AXL kinase (Homo sapiens, UniProt P30530).
T1 construct: purchased Reaction Biology
T1 sequence (P30530 26-894): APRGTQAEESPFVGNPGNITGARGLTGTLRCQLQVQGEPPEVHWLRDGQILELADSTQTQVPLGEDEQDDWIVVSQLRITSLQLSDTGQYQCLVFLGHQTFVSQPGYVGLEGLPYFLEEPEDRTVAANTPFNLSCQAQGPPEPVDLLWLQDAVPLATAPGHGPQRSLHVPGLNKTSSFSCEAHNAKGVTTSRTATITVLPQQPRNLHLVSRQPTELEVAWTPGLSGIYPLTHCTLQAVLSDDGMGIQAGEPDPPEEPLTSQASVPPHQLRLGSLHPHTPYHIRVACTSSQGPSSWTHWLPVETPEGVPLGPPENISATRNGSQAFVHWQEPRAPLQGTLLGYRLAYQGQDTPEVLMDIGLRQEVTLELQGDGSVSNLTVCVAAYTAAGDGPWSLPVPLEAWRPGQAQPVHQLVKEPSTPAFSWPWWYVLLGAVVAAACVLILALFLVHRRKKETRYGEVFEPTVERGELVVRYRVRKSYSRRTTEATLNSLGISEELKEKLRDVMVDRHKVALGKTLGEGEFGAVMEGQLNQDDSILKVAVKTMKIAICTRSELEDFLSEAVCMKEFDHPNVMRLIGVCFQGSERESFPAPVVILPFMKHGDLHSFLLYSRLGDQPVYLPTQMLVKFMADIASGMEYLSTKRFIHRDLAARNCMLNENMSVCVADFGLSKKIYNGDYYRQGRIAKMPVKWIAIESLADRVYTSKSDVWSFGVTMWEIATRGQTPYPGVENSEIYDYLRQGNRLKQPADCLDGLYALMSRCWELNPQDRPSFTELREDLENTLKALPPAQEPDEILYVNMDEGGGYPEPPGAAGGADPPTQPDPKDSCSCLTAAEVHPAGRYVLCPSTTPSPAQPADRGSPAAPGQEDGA
Kind of series: AXL kinase assay (Reaction Biology Hot Spot, 33P-ATP). The series is classed as biochemical.

SMILES strings stand for the structures.

Regarding `Nc1nc(Nc2ccc3c(c2)CC[C@@H](N2CCCC2)CC3)nn1-c1cc2c(nn1)-c1ccccc1CCC2` [Bemcentinib, bemcentinib, reference compound], the results for the 50% inhibitory concentration (IC50) with SARS-CoV-2 [1] and with SARS-CoV-2pp were 0.07 µM and 5.7 µM, respectively. In addition, the EC50 with SARS-CoV-1pp amounted to 0.91 ± 0.01 µM; in the series with SARS-CoV-2pp, 5.68 ± 3.76 µM; in series [2] it was 0.43 ± 0.18 µM; in series [3], 0.39 ± 0.14 µM; in [4] it was 0.38 ± 0.14 µM; in series [5] it was 0.42 ± 0.12 µM. The EC50 in [6] is 0.21 ± 0.01 µM; with BA.2 SARS-CoV-2pp it was 0.16 ± 0.03 µM; with MERSpp, 0.09 ± 0.01 µM. Besides, the “effect on SARS-CoV2 viral load in lung homogenates” value in series [7] is given as “failed to reduce SARS-CoV2 viral load”. Moreover, the “inhibition of SARS-CoV-2 infection of human lung Calu-3 cells” value in the series on SARS-CoV-2 [8] was “inhibits SARS-CoV-2 infection of human lung Calu-3 cells”. In the series on COVID-19, the “clinical response in patients hospitalized with COVID-19” value was “improved clinical response and key secondary endpoints”. This compound came in with an AUC in [9] (100 mg/kg) of 33.3 µg·h/mL. Moreover, the Cmax in series [9] (100 mg/kg) came out at 1.76 µg/mL. Besides, in [9] (100 mg/kg), the time of peak concentration (Tmax) worked out at 13 h. The “vacuolization in human lung A549 cells” value in the series with A549 cells [10] is “induced significant vacuolization”. In addition, the “phospholipidosis in A549 cells (NBD-PE staining)” value with A549 cells [11] is listed as “neither compound demonstrated phospholipidosis”.
On to `c1ccc2c(c1)CCCc1cc(-c3nnc(Nc4ccc5c(c4)CCC(N4CCCC4)CC5)o3)nnc1-2` (centres unmarked) [WYS-633], for which the results for the half-inhibitory concentration (IC50) in the series with SARS-CoV-2 [1] and in the series with SARS-CoV-2pp were 0.61 µM and 2.52 µM, respectively. The EC50 in the series with SARS-CoV-1pp is 0.75 ± 0.07 µM; in the series with SARS-CoV-2pp it was 2.52 ± 2.26 µM; in series [2] it was 1.23 ± 0.58 µM; in series [3] it was 1.25 ± 0.05 µM; in [4], 1.05 ± 0.37 µM; in series [5], 1.66 ± 0.71 µM. Besides, the figures for the EC50 (in series [6]; in the series on BA.2 SARS-CoV-2pp; in the series with MERSpp) were 1.03 ± 0.65 µM, 0.68 ± 0.29 µM and 0.31 ± 0.12 µM, respectively. The “activity against AXL kinase (in words)” value on AXL kinase is “inactive”. For the same compound, the “effect on SARS-CoV2 viral load in lung homogenates” value in series [7] is on record as “failed to reduce SARS-CoV2 viral load”. Also, the AUC in series [9] (100 mg/kg) came out at 7.92 µg·h/mL. The same compound registered a Cmax in [9] (100 mg/kg) of 0.95 µg/mL. Moreover, the Tmax in series [9] (100 mg/kg) amounted to 2 h. Also, the “vacuolization in human lung A549 cells” value in the series on A549 cells [10] is given as “did not”. Moreover, the “phospholipidosis in A549 cells (NBD-PE staining)” value with A549 cells [11] is “neither compound demonstrated phospholipidosis”.
As for `FC(F)(F)c1nc(Nc2ccc3c(c2)CCC(N2CCCC2)CC3)n(-c2cc3c(nn2)-c2ccccc2CCC3)n1` (centres unmarked) [WYS-694], the EC50 with SARS-CoV-1pp worked out at 0.82 ± 1.02 µM; in the series with SARS-CoV-2pp, 0.08 ± 0.03 µM; in series [2] it was 0.12 ± 0.07 µM; in series [3], 0.18 ± 0.11 µM; in series [4], 0.13 ± 0.09 µM; in [5], 0.16 ± 0.15 µM. For the same compound, the EC50 was 0.13 ± 0.12 µM in [6] and 0.45 ± 0.44 µM in the series with BA.2 SARS-CoV-2pp. Besides, the “fold more potent than WYS-633 in inhibiting viral entry” value in the series on SARS-CoV-2pp turned out to be 12.5 fold. Besides, the “reduction of SARS-CoV-2 viral load in lung homogenates” value in [7] (30 mg/kg p.o. at 24 h before) is given as “more than 4 fold”. In addition, in [9] (30 mg/kg), the AUC amounted to 10.7 µg·h/mL. For the same compound, the Cmax in series [9] (30 mg/kg) is 0.556 µg/mL. Further, the Tmax in series [9] (30 mg/kg) worked out at 24 h.
